In PubChem BioAssay (NCI):
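Five concentrations, 48 hours, 96-well plates. Definition used: TGI = concentration required for complete inhibition of growth.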

What was measured:
Experiment in all cases: inhibition of tumour cell growth, NCI panel, 48 h
786-0 renal = tested on: 786-0 renal
A498 renal = tested on: A498 renal
A549 NSCLC = tested on: A549 NSCLC
ACHN renal = tested on: ACHN renal
BT-549 breast = tested on: BT-549 breast
CAKI-1 renal = tested on: CAKI-1 renal
CCRF-CEM leukemia = tested on: CCRF-CEM leukemia
COLO 205 colon = tested on: COLO 205 colon
DU-145 prostate = tested on: DU-145 prostate
EKVX NSCLC = tested on: EKVX NSCLC
HCC-2998 colon = tested on: HCC-2998 colon
HCT-116 colon = tested on: HCT-116 colon
HCT-15 colon = tested on: HCT-15 colon
HL-60(TB) leukemia = tested on: HL-60(TB) leukemia
HOP-62 NSCLC = tested on: HOP-62 NSCLC
HOP-92 NSCLC = tested on: HOP-92 NSCLC
HS 578T breast = tested on: HS 578T breast
HT29 colon = tested on: HT29 colon
IGROV1 ovarian = tested on: IGROV1 ovarian
K-562 leukemia = tested on: K-562 leukemia
KM12 colon = tested on: KM12 colon
LOX IMVI melanoma = tested on: LOX IMVI melanoma
M14 melanoma = tested on: M14 melanoma
MALME-3M melanoma = tested on: MALME-3M melanoma
MCF7 breast = tested on: MCF7 breast
MDA-MB-231 breast = tested on: MDA-MB-231 breast
MDA-MB-435 = tested on: MDA-MB-435
MDA-N = tested on: MDA-N
MOLT-4 leukemia = tested on: MOLT-4 leukemia
NCI-H226 lung = tested on: NCI-H226 lung
NCI-H23 lung = tested on: NCI-H23 lung
NCI-H460 lung = tested on: NCI-H460 lung
NCI-H522 lung = tested on: NCI-H522 lung
NCI/ADR-RES ovarian = tested on: NCI/ADR-RES ovarian
OVCAR-3 ovarian = tested on: OVCAR-3 ovarian
OVCAR-4 ovarian = tested on: OVCAR-4 ovarian
OVCAR-5 ovarian = tested on: OVCAR-5 ovarian
OVCAR-8 ovarian = tested on: OVCAR-8 ovarian
PC-3 prostate = tested on: PC-3 prostate
RXF 393 renal = tested on: RXF 393 renal
SF-268 CNS = tested on: SF-268 CNS
SF-295 CNS = tested on: SF-295 CNS
SF-539 CNS = tested on: SF-539 CNS
SK-MEL-2 melanoma = tested on: SK-MEL-2 melanoma
SK-MEL-28 melanoma = tested on: SK-MEL-28 melanoma
SK-MEL-5 melanoma = tested on: SK-MEL-5 melanoma
SK-OV-3 ovarian = tested on: SK-OV-3 ovarian
SN12C renal = tested on: SN12C renal
SNB-19 CNS = tested on: SNB-19 CNS
SNB-75 CNS = tested on: SNB-75 CNS
SR leukemia = tested on: SR leukemia
SW-620 colon = tested on: SW-620 colon
T-47D breast = tested on: T-47D breast
TK-10 renal = tested on: TK-10 renal
U251 CNS = tested on: U251 CNS
UACC-257 melanoma = tested on: UACC-257 melanoma
UACC-62 melanoma = tested on: UACC-62 melanoma
UO-31 renal = tested on: UO-31 renal

`Cc1ccc(N)c(S)c1` gave a TGI (786-0 renal) of 29.6 µM, a TGI (A498 renal) of 38.6 µM and a TGI (A549 NSCLC) of 40.6 µM. It also gave a TGI (ACHN renal) of 37.9 µM, a TGI (BT-549 breast) of 36.4 µM and a TGI (CAKI-1 renal) of 85 µM. The TGI (CCRF-CEM leukemia) was > 100 µM, the TGI (COLO 205 colon) was 52.9 µM and the TGI (DU-145 prostate) was 29.1 µM. It also gave a TGI (EKVX NSCLC) of 31.5 µM, a TGI (HCC-2998 colon) of 88.1 µM and a TGI (HCT-116 colon) of 46.8 µM. It also gave a TGI (HCT-15 colon) of 30.4 µM, a TGI (HL-60(TB) leukemia) of 58.5 µM and a TGI (HOP-62 NSCLC) of 44.4 µM. The TGI (HOP-92 NSCLC) was 30.2 µM, the TGI (HS 578T breast) was > 100 µM and the TGI (HT29 colon) was 33.8 µM. The TGI (IGROV1 ovarian) was 31.5 µM, the TGI (K-562 leukemia) was 65.1 µM and the TGI (KM12 colon) was 36.7 µM. The TGI (LOX IMVI melanoma) was 30 µM, the TGI (M14 melanoma) was 30.8 µM and the TGI (MALME-3M melanoma) was 82.6 µM. The TGI (MCF7 breast) was 38.8 µM, the TGI (MDA-MB-231 breast) was 31.3 µM and the TGI (MDA-MB-435) was 36.1 µM. The TGI (MDA-N) was 28.2 µM, the TGI (MOLT-4 leukemia) was 47 µM and the TGI (NCI-H226 lung) was 49.1 µM. It also gave a TGI (NCI-H23 lung) of 36.3 µM, a TGI (NCI-H460 lung) of 49.9 µM and a TGI (NCI-H522 lung) of 33.5 µM. It also gave a TGI (NCI/ADR-RES ovarian) of 56.8 µM, a TGI (OVCAR-3 ovarian) of 44 µM and a TGI (OVCAR-4 ovarian) of 43.5 µM. It also gave a TGI (OVCAR-5 ovarian) of 42 µM, a TGI (OVCAR-8 ovarian) of 30.8 µM and a TGI (PC-3 prostate) of 28.6 µM. It also gave a TGI (RXF 393 renal) of 30.8 µM, a TGI (SF-268 CNS) of 46.2 µM and a TGI (SF-295 CNS) of 43.4 µM. It also gave a TGI (SF-539 CNS) of 31.3 µM, a TGI (SK-MEL-2 melanoma) of 31.5 µM and a TGI (SK-MEL-28 melanoma) of 47.6 µM. It also gave a TGI (SK-MEL-5 melanoma) of 30.6 µM, a TGI (SK-OV-3 ovarian) of 70.8 µM and a TGI (SN12C renal) of 7.83 µM. The TGI (SNB-19 CNS) was 36.7 µM, the TGI (SNB-75 CNS) was 40.5 µM and the TGI (SR leukemia) was 45.8 µM. The TGI (SW-620 colon) was 38.7 µM, the TGI (T-47D breast) was 33.9 µM and the TGI (TK-10 renal) was 43.1 µM. The TGI (U251 CNS) was 28.5 µM, the TGI (UACC-257 melanoma) was 54.7 µM and the TGI (UACC-62 melanoma) was 32.7 µM. It also gave a TGI (UO-31 renal) of 26.7 µM.
